Data: US8173638B2 (Boehringer Ingelheim International GmbH, priority 2006, dated 2012)

Each compound was assayed against T1, human CB2R (Homo sapiens, UniProt P34972) (assay: CB2R mediated modulation of cAMP synthesis). Details: 0.5 h; CHO cells expressing human CB2R; cAMP inhibited by 1 uM CP55940 defined as 100%; read-out: Agonist Efficacy (%).
T1 construct: host or cells: CHO cells
Assay type: cell-based
Procedure, shortened: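 CHO cells expressing human CB2R treated with compound 30 min at 37 °C in buffer with 1 mM IBMX, 0.25% BSA and 10 uM forskolin. cAMP measured after lysis by DiscoverX-XS kit.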

T1 sequence (P34972 whole entry): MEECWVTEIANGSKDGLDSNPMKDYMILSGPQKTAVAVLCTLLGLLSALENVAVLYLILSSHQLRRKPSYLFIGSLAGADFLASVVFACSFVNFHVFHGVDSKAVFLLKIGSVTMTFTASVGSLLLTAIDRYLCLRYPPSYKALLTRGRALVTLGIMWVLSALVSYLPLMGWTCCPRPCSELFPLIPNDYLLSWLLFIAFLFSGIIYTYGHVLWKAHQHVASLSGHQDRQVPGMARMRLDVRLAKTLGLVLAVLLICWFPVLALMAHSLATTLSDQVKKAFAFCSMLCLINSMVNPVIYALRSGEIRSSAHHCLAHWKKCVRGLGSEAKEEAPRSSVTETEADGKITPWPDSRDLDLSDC

| Emax [%] | SMILES |
| --- | --- |
| 73 | CCCCCc1ccc(NC(=O)N2CCCN(C(=O)CC3CCCC3)CC2)cc1 [Compound 49, 4-(2-Cyclopentyl-acetyl)-[1,4]diazepane-1-carboxylic acid (4-n-pentyl-phenyl)-amide] |
| 107 | CC(=O)NC1CCC(C(=O)N2CCCN(C(=O)Nc3cc(C(C)(C)C)on3)CC2)CC1 (stereo not drawn) [Compound 160, 4-(4-Acetylamino-cyclohexanecarbonyl)-[1,4]diazepane-1-carboxylic acid (5-tert-butyl-isoxazol-3-yl)-amide] |
| 65 | CCCCc1ccc(NC(=O)N2CCCN(C(=O)CC3CCCC3)CC2)cc1 [Example 11] |
| 102 | O=C(Nc1nc(-c2ccccc2)cs1)N1CCCN(C(=O)c2ccc(Cl)cc2)CC1 [Compound 167, 4-(4-Chloro-benzoyl)-[1,4]diazepane-1-carboxylic acid (4-phenyl-thiazol-2-yl)-amide] |
| 96 | O=C(Nc1ccc(SC(F)(F)F)cc1)N1CCCN(C(=O)C2CCOCC2)CC1 [Compound 81, 4-(Tetrahydro-pyran-4-carbonyl)-[1,4]diazepane-1-carboxylic acid (4-trifluoromethylsulfanyl-phenyl)-amide] |
| 92 | O=C(CC1CCCC1)N1CCCN(C(=O)Nc2ccc(SC(F)(F)F)cc2)CC1 [Compound 82, 4-(2-cyclopentyl-acetyl)-[1,4]diazepane-1-carboxylic acid (4-trifluoromethylsulfanyl-phenyl)-amide] |
| 101 | O=C(Nc1nc2c(s1)CCCC2)N1CCCN(C(=O)c2ccc(Cl)cc2)CC1 [Compound 168, 4-(4-Chloro-benzoyl)-[1,4]diazepane-1-carboxylic acid (4,5,6,7-tetrahydro-benzothiazol-2-yl)-amide] |

Same assay, conditions: found through the use of the described assays (CB2 agonists); qualitative statement

| agonistic activity | SMILES |
| --- | --- |
| agonistic activity | O=C(Nc1ccc2ccccc2c1)N1CCCN(C(=O)c2cc(Cl)ccc2Cl)CC1 [4-(2,5-Dichloro-benzoyl)-[1,4]diazepane-1-carboxylic acid naphthalen-2-ylamide] |
| agonistic activity | O=C(Nc1cc(Cl)cc(Cl)c1)N1CCCN(C(=O)c2ccc(Cl)cc2)CC1 [4-(4-Chloro-benzoyl)-[1,4]diazepane-1-carboxylic acid (3,5-dichloro-phenyl)-amide] |
| agonistic activity | CC(C)(C)c1csc(NC(=O)N2CCCN(C(=O)C3CCOCC3)CC2)n1 [4-(Tetrahydro-pyran-4-carbonyl)-[1,4]diazepane-1-carboxylic acid (4-tert-butyl-thiazol-2-yl)-amide] |
| agonistic activity | CN(C)c1ccc(NC(=O)N2CCCN(C(=O)CCC3CCCC3)CC2)cc1 [4-(3-Cyclopentyl-propionyl)-[1,4]diazepane-1-carboxylic acid (4-dimethylamino-phenyl)-amide] |
| agonistic activity | CC(C)(C)c1cc(NC(=O)N2CCCN(C(=O)N3CCCOCC3)CC2)no1 [4-([1,4]Oxazepane-4-carbonyl)-[1,4]diazepane-1-carboxylic acid (5-tert-butyl-isoxazol-3-yl)-amide] |
| agonistic activity | CC(C)(C)c1cc(NC(=O)N2CCCN(C(=O)CN3CCC(F)(F)CC3)CC2)no1 [4-[2-(4,4-Difluoro-piperidin-1-yl)-acetyl]-[1,4]diazepane-1-carboxylic acid (5-tert-butyl-isoxazol-3-yl)-amide] |
| agonistic activity | CC(C)(C)c1cc(NC(=O)N2CCCN(C(=O)CN3CCSCC3)CC2)no1 [4-(2-Thiomorpholin-4-yl-acetyl)-[1,4]diazepane-1-carboxylic acid (5-tert-butyl-isoxazol-3-yl)-amide] |
| agonistic activity | CCC(C)c1cc(NC(=O)N2CCCN(C(=O)N3CCOCC3)CC2)on1 (stereo not drawn) [4-(Morpholine-4-carbonyl)-[1,4]diazepane-1-carboxylic acid (3-sec-butyl-isoxazol-5-yl)-amide] |
| agonistic activity | CN(C)c1ccc(C(=O)N2CCCN(C(=O)Nc3ccc4ccccc4c3)CC2)cc1 [4-(4-Dimethylamino-benzoyl)-[1,4]diazepane-1-carboxylic acid naphthalen-2-ylamide] |
| agonistic activity | CCc1ccc(NC(=O)N2CCCN(C(=O)C3CCCCC3)CC2)cc1 [4-Cyclohexanecarbonyl-[1,4]diazepane-1-carboxylic acid (4-ethyl-phenyl)-amide] |
| agonistic activity | CCCCc1ccc(NC(=O)N2CCCN(C(=O)CC3CCOCC3)CC2)cc1 [4-(2-Tetrahydro-pyran-4-yl-acetyl)-[1,4]diazepane-1-carboxylic acid (4-butyl-phenyl)-amide] |
| agonistic activity | O=C(Nc1ccc2ccccc2c1)N1CCCN(C(=O)C2CCCCC2)CC1 [4-Cyclohexanecarbonyl-[1,4]diazepane-1-carboxylic acid naphthalen-2-ylamide] |
| agonistic activity | O=C(CCC1CCCC1)N1CCCN(C(=O)NCC2CCCCC2)CC1 [4-(3-Cyclopentyl-propionyl)-[1,4]diazepane-1-carboxylic acid cyclohexylmethyl-amide] |
| agonistic activity | CCCCCc1ccc(NC(=O)N2CCCN(C(=O)CCC3CCCC3)CC2)cc1 [4-(3-Cyclopentyl-propionyl)-[1,4]diazepane-1-carboxylic acid (4-pentyl-phenyl)-amide] |
| agonistic activity | CCC(C)c1ccc(NC(=O)N2CCCN(C(=O)N3CCS(=O)(=O)CC3)CC2)cc1 (stereo not drawn) [4-(1,1-Dioxo-1λ^6-thiomorpholine-4-carbonyl)-[1,4]diazepane-1-carboxylic acid (4-sec-butyl-phenyl)-amide] |
| agonistic activity | O=C(CC1CCCC1)N1CCCN(C(=O)Nc2cc(Cl)cc(Cl)c2)CC1 [4-(2-Cyclopentyl-acetyl)-[1,4]diazepane-1-carboxylic acid (3,5-dichloro-phenyl)-amide] |
| agonistic activity | CCCCCc1ccc(NC(=O)N2CCCN(C(=O)CC3CCCC3)CC2)cc1 [4-(2-Cyclopentyl-acetyl)-[1,4]diazepane-1-carboxylic acid (4-n-pentyl-phenyl)-amide] |
| agonistic activity | O=C(CC1CCCC1)N1CCCN(C(=O)Nc2cccc(C(F)(F)F)c2)CC1 [4-(2-Cyclopentyl-acetyl)-[1,4]diazepane-1-carboxylic acid (3-trifluoromethyl-phenyl)-amide] |
| agonistic activity | CC(C)(C)c1ccc(NC(=O)N2CCCN(C(=O)CNc3ccccc3)CC2)cc1 [4-(2-Phenylamino-acetyl)-[1,4]diazepane-1-carboxylic acid (4-tert-butyl-phenyl)-amide] |
| agonistic activity | O=C(CCC1CC1)N1CCCN(C(=O)Nc2ccc3ccccc3c2)CC1 [4-(3-Cyclopropyl-propionyl)-[1,4]diazepane-1-carboxylic acid naphthalen-2-ylamide] |
| agonistic activity | O=C(Nc1ccc(C(F)(F)F)cc1)N1CCCN(C(=O)c2ccc(F)cc2)CC1 [4-(4-Fluoro-benzoyl)-[1,4]diazepane-1-carboxylic acid (4-trifluoromethyl-phenyl)-amide] |
| agonistic activity | O=C(CC1CCOCC1)N1CCCN(C(=O)Nc2cc(Cl)cc(Cl)c2)CC1 [4-(2-Tetrahydro-pyran-4-yl-acetyl)-[1,4]diazepane-1-carboxylic acid (3,5-dichloro-phenyl)-amide] |
| agonistic activity | CCC(C)c1ccc(NC(=O)N2CCCN(C(=O)N3CCOCC3)CC2)cc1 (stereo not drawn) [4-(Morpholine-4-carbonyl)-[1,4]diazepane-1-carboxylic acid (4-sec-butyl-phenyl)-amide] |
| agonistic activity | CC(C)c1cnc(NC(=O)N2CCCN(C(=O)N3CCS(=O)(=O)CC3)CC2)s1 [4-(1,1-Dioxo-1λ^6-thiomorpholine-4-carbonyl)-[1,4]diazepane-1-carboxylic acid (5-isopropyl-thiazol-2-yl)-amide] |
| agonistic activity | CC(C)(C)c1cc(NC(=O)N2CCCN(C(=O)N3CCS(=O)(=O)CC3)CC2)on1 [4-(1,1-Dioxo-1λ^6-thiomorpholine-4-carbonyl)-[1,4]diazepane-1-carboxylic acid (3-tert-butyl-isoxazol-5-yl)-amide] |
| agonistic activity | CCC(C)c1ccc(NC(=O)N2CCCN(C(=O)CC3CCOCC3)CC2)cc1 (stereo not drawn) [4-(2-Tetrahydro-pyran-4-yl-acetyl)-[1,4]diazepane-1-carboxylic acid (4-sec-butyl-phenyl)-amide] |

| SMILES | agonistic activity |
| --- | --- |
| CC(C)(C)c1cc(NC(=O)N2CCCN(C(=O)NC3CCOCC3)CC2)no1 | agonistic activity |
| CC(C)(C)c1cc(NC(=O)N2CCCN(C(=O)c3ccc(C(F)(F)F)cc3)CC2)no1 [4-(4-Trifluoromethyl-benzoyl)-[1,4]diazepane-1-carboxylic acid (5-tert-butyl-isoxazol-3-yl)-amide] | agonistic activity |
| CC(C)(C)c1cc(NC(=O)N2CCCN(C(=O)C3CCOC3)CC2)no1 (stereo not drawn) [4-(Tetrahydro-furan-3-carbonyl)-[1,4]diazepane-1-carboxylic acid (5-tert-butyl-isoxazol-3-yl)-amide] | agonistic activity |
| CC(C)(C)c1cc(NC(=O)N2CCCN(C(=O)C3CCOCC3)CC2)no1 [4-(Tetrahydro-pyran-4-carbonyl)-[1,4]diazepane-1-carboxylic acid (5-tert-butyl-isoxazol-3-yl)-amide] | agonistic activity |
| CC(C)c1ccc(NC(=O)N2CCCN(C(=O)CC(C)(C)C)CC2)cc1 [4-(3,3-Dimethyl-butyryl)-[1,4]diazepane-1-carboxylic acid (4-isopropyl-phenyl)-amide] | agonistic activity |

Same assay, conditions: read-out: hCB2 cAMP EC50

| EC50 [nM] | SMILES |
| --- | --- |
| 48 | CCCCCc1ccc(NC(=O)N2CCCN(C(=O)CC3CCCC3)CC2)cc1 [Compound 49, 4-(2-Cyclopentyl-acetyl)-[1,4]diazepane-1-carboxylic acid (4-n-pentyl-phenyl)-amide] |
| 68 | CC(=O)NC1CCC(C(=O)N2CCCN(C(=O)Nc3cc(C(C)(C)C)on3)CC2)CC1 (stereo not drawn) [Compound 160, 4-(4-Acetylamino-cyclohexanecarbonyl)-[1,4]diazepane-1-carboxylic acid (5-tert-butyl-isoxazol-3-yl)-amide] |
| 74 | CCCCc1ccc(NC(=O)N2CCCN(C(=O)CC3CCCC3)CC2)cc1 [Example 11] |
| 26 | O=C(Nc1nc(-c2ccccc2)cs1)N1CCCN(C(=O)c2ccc(Cl)cc2)CC1 [Compound 167, 4-(4-Chloro-benzoyl)-[1,4]diazepane-1-carboxylic acid (4-phenyl-thiazol-2-yl)-amide] |
| 120 | O=C(Nc1ccc(SC(F)(F)F)cc1)N1CCCN(C(=O)C2CCOCC2)CC1 [Compound 81, 4-(Tetrahydro-pyran-4-carbonyl)-[1,4]diazepane-1-carboxylic acid (4-trifluoromethylsulfanyl-phenyl)-amide] |
| 36 | O=C(CC1CCCC1)N1CCCN(C(=O)Nc2ccc(SC(F)(F)F)cc2)CC1 [Compound 82, 4-(2-cyclopentyl-acetyl)-[1,4]diazepane-1-carboxylic acid (4-trifluoromethylsulfanyl-phenyl)-amide] |
| 3.6 | O=C(Nc1nc2c(s1)CCCC2)N1CCCN(C(=O)c2ccc(Cl)cc2)CC1 [Compound 168, 4-(4-Chloro-benzoyl)-[1,4]diazepane-1-carboxylic acid (4,5,6,7-tetrahydro-benzothiazol-2-yl)-amide] |
